Source: ChEMBL document CHEMBL1149649, “Synthesis and anti-influenza activities of carboxyl alkoxyalkyl esters of 4-guanidino-Neu5Ac2en (zanamivir)” (Bioorg Med Chem Lett, 2007)
pIC50: −log10 of the molar value.

What was measured:
Influenza A virus [1] = experiment: Antiviral activity against influenza A/Yuefang/243/72 (H3N2) virus in MDCK cells by CPE assay; type: functional, organism-based
Influenza B virus [2] = experiment: Antiviral activity against influenza B/Jifang/13/97 virus in MDCK cells by CPE assay; type: functional, organism-based
Influenza A virus [3] = experiment: Antiviral activity against influenza A/Hanfang/359/95 (H3N2) virus in MDCK cells by CPE assay; type: functional, organism-based
Influenza A virus [4] = experiment: Antiviral activity against influenza A/Jingfang/262/95(H1N1) virus in MDCK cells by CPE assay; type: functional, organism-based
Influenza B virus [5] = experiment: Antiviral activity against influenza B/Jingfang/76/98 in MDCK cells by CPE assay; type: functional, organism-based
Influenza B virus [6] = experiment: Antiviral activity against influenza B/Sichuan/83/2000 virus in MDCK cells by CPE assay; type: functional, organism-based
Influenza A virus [7] = experiment: Antiviral activity against influenza A/Jifang/15/90 (H3N2) virus in MDCK cells by CPE assay; type: functional, organism-based
Influenza A virus [8] = experiment: Antiviral activity against influenza A/Jingfang/Fm1 (H1N1) infected in mouse assessed as survival of mouse at 31.25 mg/kg, po bid after 2 hrs of viral infection for 5 days; type: functional
Influenza A virus [9] = experiment: Antiviral activity against influenza A/Jingfang/Fm1 (H1N1) infected in mouse assessed as mean survival time of mouse at 62.5 mg/kg, po bid after 2 hrs of viral infection for 5 days; type: functional
Mus musculus [10] = experiment: Weight change in mouse at 62.5 mg/kg, ip bid after 14 days; type: ADME, organism-based; set-up: dose 62.5 mg/kg, route intraperitoneal; conditions: in vivo, 336 h
Mus musculus [11] = experiment: Weight change in mouse at 125 mg/kg, po bid after 14 days; type: ADME, organism-based; set-up: dose 125 mg/kg, route oral; conditions: in vivo, 336 h
Influenza A virus [12] = experiment: Antiviral activity against influenza A/Jingfang/Fm1 (H1N1) virus infected in mouse assessed as survival of mouse at 125 mg/kg, po bid after 2 hrs of viral infection for 5 days; type: functional
Mus musculus [13] = experiment: Survival of mouse at 31.25 mg/kg, po bid after 5 days; type: ADME, organism-based; set-up: dose 31.25 mg/kg, route oral; conditions: in vivo, 120 h
Influenza A virus [14] = experiment: Antiviral activity against influenza A/Jingfang/Fm1 (H1N1) infected in mouse assessed as mean survival time of mouse at 62.5 mg/kg, ip bid after 2 hrs of viral infection for 5 days; type: functional; conditions: route intraperitoneal
Influenza A virus [15] = experiment: Antiviral activity against influenza A/Jingfang/Fm1 (H1N1) infected in mouse assessed as mean survival time of mouse at 125 mg/kg, po bid after 2 hrs of viral infection for 5 days; type: functional
Influenza A virus [16] = experiment: Antiviral activity against influenza A/Jingfang/Fm1 (H1N1) infected in mouse assessed as mean survival time of mouse at 31.25 mg/kg, po bid after 2 hrs of viral infection for 5 days; type: functional
Mus musculus [17] = experiment: Weight change in mouse at 31.25 mg/kg, po bid after 14 days; type: ADME, organism-based; set-up: dose 31.25 mg/kg, route oral; conditions: in vivo, 336 h
Influenza A virus [18] = experiment: Antiviral activity against influenza A/Jingfang/Fm1 (H1N1) infected in mouse assessed as survival of mouse at 62.5 mg/kg, po bid after 2 hrs of viral infection for 5 days; type: functional
Influenza A virus [19] = experiment: Antiviral activity against influenza A/Jingfang/Fm1 (H1N1) infected in mouse assessed as survival of mouse at 62.5 mg/kg, ip bid after 2 hrs of viral infection for 5 days; type: functional; conditions: route intraperitoneal
Mus musculus [20] = experiment: Survival of mouse at 62.5 mg/kg, ip bid after 5 days; type: ADME, organism-based; set-up: dose 62.5 mg/kg, route intraperitoneal; conditions: in vivo, 120 h
Mus musculus [21] = experiment: Survival of mouse at 62.5 mg/kg, po bid after 5 days; type: ADME, organism-based; set-up: dose 62.5 mg/kg, route oral; conditions: in vivo, 120 h
Mus musculus [22] = experiment: Survival of mouse at 125 mg/kg, po bid after 5 days; type: ADME, organism-based; set-up: dose 125 mg/kg, route oral; conditions: in vivo, 120 h
Mus musculus [23] = experiment: Weight change in mouse at 62.5 mg/kg, po bid after 14 days; type: ADME, organism-based; set-up: dose 62.5 mg/kg, route oral; conditions: in vivo, 336 h
Mus musculus [24] = experiment: Survival of mouse at 100 mg/kg, ip bid after 5 days; type: ADME, organism-based; set-up: dose 100 mg/kg, route intraperitoneal; conditions: in vivo, 120 h
Influenza A virus [25] = experiment: Antiviral activity against influenza A/Jingfang/Fm1 (H1N1) infected in mouse assessed as mean survival time of mouse at 100 mg/kg, ip bid after 2 hrs of viral infection for 5 days; type: functional; conditions: route intraperitoneal
Mus musculus [26] = experiment: Weight change in mouse at 100 mg/kg, ip bid after 14 days; type: ADME, organism-based; set-up: dose 100 mg/kg, route intraperitoneal; conditions: in vivo, 336 h

Structure (SMILES)	pIC50 (Influenza A virus [1])	pIC50 (Influenza B virus [2])	pIC50 (Influenza A virus [3])	pIC50 (Influenza A virus [4]; Influenza A virus, MDCK)	pIC50 (Influenza B virus [5])	pIC50 (Influenza B virus [6])	pIC50 (Influenza A virus [7])	other results
CCCCCCCCCCCCCCCCOCCCOC(=O)C1=C[C@H](NC(=N)N)[C@@H](NC(C)=O)[C@H]([C@H](O)[C@H](O)CO)O1	6.52	4.63	5.51	4.74	4.65	4.65	5.52	
CCCCCCCCCCCCCCOCCCOC(=O)C1=C[C@H](NC(=N)N)[C@@H](NC(C)=O)[C@H]([C@H](O)[C@H](O)CO)O1	6.50	4.50	5.97	4.72	4.63	4.42	5.60	
CCCCCCCCCCCCCCCCCCOCCOC(=O)C1=C[C@H](NC(=N)N)[C@@H](NC(C)=O)[C@H]([C@H](O)[C@H](O)CO)O1	6.65	3.61	5.23	4.57	4.18	4.66	5.53	survival at 31.25 mg/kg (Influenza A virus [8]): 10%; Activity (Influenza A virus [9]): 10.2 days; Activity (Mus musculus [10]): 13.9 g; Activity (Mus musculus [11]): 12.5 g; survival at 125 mg/kg (Influenza A virus [12]): 60%; Activity (Mus musculus [13]): Active; Activity (Influenza A virus [14]): 11.5 days; Activity (Influenza A virus [15]): 11.2 days; Activity (Influenza A virus [16]): 9.1 days; Activity (Mus musculus [17]): 12.7 g; survival at 62.5 mg/kg (Influenza A virus [18]): 40%; survival at 62.5 mg/kg (Influenza A virus [19]): 60%; Activity (Mus musculus [20]): Active; Activity (Mus musculus [21]): Active; Activity (Mus musculus [22]): Active; Activity (Mus musculus [23]): 13.5 g
NC(=O)c1ncn([C@@H]2O[C@H](CO)[C@@H](O)[C@H]2O)n1 [RIBAVIRIN]	5.23	4.02	5.15	3.75	4.82	3.79	5.30	Activity (Mus musculus [24]): Active; Activity (Influenza A virus [25]): 14 days; Activity (Mus musculus [26]): 11.5 g
CC(=O)N[C@H]1[C@H]([C@H](O)[C@H](O)CO)OC(C(=O)O)=C[C@@H]1NC(=N)N [ZANAMIVIR]	7.12		6.41		3.65	2.80	6.33	pIC50 (Influenza A virus [4]; mdck): 4.78
